Results as given in patent publication US20120088660A1, “Antifungal 1,2,4-triazolyl Derivatives” (BASF SE, priority 2009, published 2012).

system: Phakopsora pachyrhizi; test: Curative control of soy bean rust on soy beans (greenhouse test); assay type: in vivo; conditions: 300 ppm aqueous preparation sprayed to run-off after inoculation (curative); soy bean seedlings; assessed after 14 days; untreated plants 60% infected
Protocol: The spray soultions were prepared in several steps: The stock solution were prepared by adding a mixture of acetone and/or dimethylsulfoxide and the wetting agent/emulsifier Wettol, which is based on ethoxylated alkylphenoles, in a relation (volume) solvent-emulsifier of 99 to 1 to 25 mg of the compound to give a total of 10 ml. Water was then added to total volume of 100 ml. This stock solution was diluted with the described solvent-emulsifier-water mixture to the given concentration. 1. Curative Control of Soy Bean Rust on Soy Beans Caused by Phakopsora Pachyrhizi Leaves of pot-grown soy bean seedlings were inoculated with spores of Phakopsora pachyrhizi. To ensure the success of the artificial inoculation, the plants were transferred to a humid chamber with a relative humidity of about 95% and 20 to 24° C. for 24 h. The next day the plants were cultivated for 2 days in a greenhouse chamber at 23-27° C. and a relative humidity between 60 and 80%. Then the plants were sprayed to run-off with an aqueous suspension, containing the concentration of active ingredient or their mixture as described below. The plants were allowed to air-dry. Then the trial plants were cultivated for 14 days in a greenhouse chamber at 23-27° C. and a relative humidity between 60 and 80%. The extent of fungal attack on the leaves was visually assessed as % diseased leaf area.

Row | Compound | infection (extent of fungal attack on the leaves, visually assessed as % diseased leaf area) [%]
1 | CC(C)(C)C(O)(CCCCCOc1ccccc1Cl)Cn1nc[nH]c1=S (stereo not drawn) [Example 16, 1-[2-tert-butyl-7-(2-chlorophenoxy)-2-hydroxyheptyl]-1H-1,2,4-triazole-5(4H)-thione] | 0
2 | CC(C)(C)C(O)(CCCCCOc1ccc(Cl)cc1)Cn1nc[nH]c1=S (stereo not drawn) [Example 18, 1-[2-tert-butyl-7-(4-chlorophenoxy)-2-hydroxyheptyl]-1H-1,2,4-triazole-5(4H)-thione] | 0
3 | CC(C)(C)C(O)(CCCCOc1ccc(F)cc1F)Cn1nc[nH]c1=S (stereo not drawn) [Example 3, 1-[2-tert-Butyl-6-(2,4-difluorophenoxy)-2-hydroxyhexyl]-1H-1,2,4-triazole-5(4H)-thione] | 0
4 | CC(C)(C)C(O)(CCCCCOc1cccc(Cl)c1)Cn1nc[nH]c1=S (stereo not drawn) [Example 17, 1-[2-tert-butyl-7-(3-chlorophenoxy)-2-hydroxyheptyl]-1H-1,2,4-triazole-5(4H)-thione] | 0
5 | CC(C)(C)C(O)(CCCCOc1ccccc1Cl)Cn1nc[nH]c1=S (stereo not drawn) [Example 4, 1-[2-tert-Butyl-6-(2-chlorophenoxy)-2-hydroxyhexyl]-1H-1,2,4-triazole-5(4H)-thione] | 0
6 | CC(C)(C)C(O)(CCCCOc1ccccc1)Cn1nc[nH]c1=S (stereo not drawn) [Example 1, 1-(2-tert-Butyl-2-hydroxy-6-phenoxyhexyl)-1H-1,2,4-triazole-5(4H)-thione] | 0
7 | CC(C)(C)C(O)(CCCCOc1ccc(Cl)cc1Cl)Cn1nc[nH]c1=S (stereo not drawn) [Example 5] | 0
8 | CC(C)(C)C(O)(CCCCCOc1ccccc1F)Cn1nc[nH]c1=S (stereo not drawn) [Example 11, 1-[2-tert-butyl-7-(2-fluorophenoxy)-2-hydroxyheptyl]-1H-1,2,4-triazole-5(4H)-thione] | 0
9 | CC(C)(C)C(O)(CCCCOc1ccccc1F)Cn1nc[nH]c1=S (stereo not drawn) [Example 2, 1-[2-tert-Butyl-6-(2-fluorophenoxy)-2-hydroxyhexyl]-1H-1,2,4-triazole-5(4H)-thione] | 0
10 | CC(C)(C)C(O)(CCCCCOc1ccc(F)cc1F)Cn1nc[nH]c1=S (stereo not drawn) [Example 13, 1-[2-tert-butyl-7-(2,4-difluorophenoxy)-2-hydroxyheptyl]-1H-1,2,4-triazole-5(4H)-thione] | 0
11 | CC(C)(C)C(O)(CCCCOc1cccc(Cl)c1)Cn1nc[nH]c1=S (stereo not drawn) [Example 6, 1-[2-tert-Butyl-6-(3-chlorophenoxy)-2-hydroxyhexyl]-1H-1,2,4-triazole-5(4H)-thione] | 0
12 | Cc1ccc(OCCCCCC(O)(Cn2nc[nH]c2=S)C(C)(C)C)cc1 (stereo not drawn) [Example 20, 1-[2-tert-butyl-7-(4-methylphenoxy)-2-hydroxyheptyl]-1H-1,2,4-triazole-5(4H)-thione] | 0
